In patent publication US20190224186A1, “TREATMENT OF MULTIPLE SCLEROSIS WITH CHS-131” (InteKrin Therapeutics, Inc., priority 2016, published 2019):
Where “and” joins values, the source holds several entries; their conditions need not be identical. Equal values may be shown once.

What was measured:
Type in all cases: in vivo, human
[1] = test system: MS patients in the relapsing and remitting course of the disease (RRMS); assay: Phase 2 trial: number of new gadolinium contrast-enhancing (CE) T1-weighted lesions on monthly MRI over 6 months; conditions: for LSMean cumulative number of new CE lesions over 6 months / mean cumulative number of new CE lesions over 6 months: n=70
Protocol: A Phase 2, randomized, double-blind, placebo-controlled, multi-center clinical trial of CHS-131 for the treatment of multiple sclerosis (MS) was conducted. The primary endpoint was the number of new gadolinium contrast-enhancing (CE) T1-weighted lesions on monthly MRI over 6 months.
The study enrolled MS patients in the relapsing and remitting course of the disease (RRMS) who had been diagnosed within ≤3 years of enrollment. Patients had to be treatment-naïve, have ≥1 gadolinium-positive lesion within 12 months of enrollment, and have an Expanded Disability Status Score (EDSS) of 0-6 at screening.
Part 1 was a double-blind, parallel-group, 6-month study. Patients were randomized to oral CHS-131 at 3 mg or 1 mg or placebo in a 1:1:1 ratio at 21 sites in Russia. Monthly MRIs were read in a blinded fashion at the Buffalo Neuroimaging and Analysis Center, Buffalo, N.Y., USA. Part 2 is an open label, 6-month, safety extension study, in which all subjects transition to 1 mg CHS-131 daily, to evaluate clinical response, CE lesions on MM, and safety.
The mean cumulative number of new CE lesions over 6 months was 4.2 (LSMean 3.10) for 3 mg CHS131 (n=70), 7.6 (LSMean 5.15) for 1 mg CHS131 (n=70), and 7.8 (LSMean 6.49) for placebo (n=69). The response was dose-dependent. […] FIG. 2 provides a graphical representation of these LSMean data.
Upon completion of the six month trial period described in Example 1, the number of new gadolinium CE T1-weighted lesions was evaluated in the entire study population and separately in men and women.
The ratios of changes in lesions were evaluated by a least square means (LSMeans) analysis. In such an analysis, multiple factors including both categorical (e.g. treatment, center, gender) and continuous covariates (e.g. baseline measures) can be accounted for.

[2] = test system: MS patients in the relapsing and remitting course of the disease (RRMS); assay: Phase 2 trial: Expanded Disability Status Scale (EDSS) score
Excerpt: Several methods are used to diagnose and determine the impact of multiple sclerosis on patients. The McDonald criteria are used to diagnose multiple sclerosis on clinical grounds and MRI lesions consistent with MS. The Expanded Disability Status Scale (EDSS) quantifies disability in eight Functional Systems (FS) and allows neurologists to assign a Functional System Score (FSS) in each of these. The Multiple Sclerosis Functional Composite (MSFC) is a three-part, standardized, quantitative, assessment of function. The three components of the MSFC measure leg function/ambulation, arm/hand function, and cognitive function. The EDSS and MSFC scores are useful to determine if a drug improves or prevents loss of cognitive or physical function of a patient with MS. A drug is said to reduce MS-related dysfunction if it reduces a patient's EDSS or MSFC score. The study enrolled MS patients in the relapsing and remitting course of the disease (RRMS) who had been diagnosed within ≤3 years of enrollment. Patients had to be treatment-naïve, have ≥1 gadolinium-positive lesion within 12 months of enrollment, and have an Expanded Disability Status Score (EDSS) of 0-6 at screening. Part 1 was a double-blind, parallel-group, 6-month study. Patients were randomized to oral CHS-131 at 3 mg or 1 mg or placebo in a 1:1:1 ratio at 21 sites in Russia. Monthly MRIs were read in a blinded fashion at the Buffalo Neuroimaging and Analysis Center, Buffalo, N.Y., USA. Part 2 is an open label, 6-month, safety extension study, in which all subjects transition to 1 mg CHS-131 daily, to evaluate clinical response, CE lesions on MM, and safety. The EDSS scores are reported for the full analysis population in the table below.

[3] = test system: MS patients in the relapsing and remitting course of the disease (RRMS); assay: Phase 2 trial: annualized confirmed relapse rate (ARR)
Protocol: The study enrolled MS patients in the relapsing and remitting course of the disease (RRMS) who had been diagnosed within ≤3 years of enrollment. Patients had to be treatment-naïve, have ≥1 gadolinium-positive lesion within 12 months of enrollment, and have an Expanded Disability Status Score (EDSS) of 0-6 at screening. Part 1 was a double-blind, parallel-group, 6-month study. Patients were randomized to oral CHS-131 at 3 mg or 1 mg or placebo in a 1:1:1 ratio at 21 sites in Russia. Monthly MRIs were read in a blinded fashion at the Buffalo Neuroimaging and Analysis Center, Buffalo, N.Y., USA. Part 2 is an open label, 6-month, safety extension study, in which all subjects transition to 1 mg CHS-131 daily, to evaluate clinical response, CE lesions on MM, and safety. The ARR was lower for both 3 mg CHS-131 (0.26) and 1 mg (0.28) as compared with placebo (0.35). Thus, administering CHS-131 reduces the rate at which relapses of worsening neurological function (e.g. flare-ups or exacerbations) occur. Put otherwise, administration of CHS-131 increases the time between relapses.

`O=S(=O)(Nc1cc(Cl)c(Oc2cnc3ccccc3c2)c(Cl)c1)c1ccc(Cl)cc1Cl` [CHS-131] was tested, and the “incidence of new CE lesions lower than with placebo” value ([1]; 1 mg, 6 months) was 21%, the “LSMean cumulative number of new CE lesions over 6 months” value ([1]; 1 mg) was 5.15 and the “mean cumulative number of new CE lesions over 6 months” value ([1]; 1 mg) was 7.6. For the same compound, the “LSMean cumulative number of new CE lesions over 6 months” value ([1]; 3 mg) was 3.10, the “mean cumulative number of new CE lesions over 6 months” value ([1]; 3 mg) was 4.2 and the “reduction of incidence of new CE lesions versus placebo” value ([1]; 3 mg, whole population, 6 months, p=0.003) was 52% and 53%. The “LSMean # of Lesions (new gadolinium CE T1-weighted, 6 months)” value (“LSMean # of Lesions” for short) ([1]; Female, 1 mg) was 5.48, the “Mean # of Lesions (new gadolinium CE T1-weighted, 6 months, observed data)” value ([1]; Female, 1 mg) was 8.01 and the “Percent Change from Placebo (observed mean # of lesions)” value ([1]; Female, 1 mg) was 3.2%. For the same compound, the “Percent Change from Placebo (inverse of ratio of LSMeans treatment:placebo)” value ([1]; Female, 1 mg, p 0.8481) was −5% (0.8481), the “LSMean # of Lesions” value ([1]; Female, 3 mg) was 4.18 and the “Mean # of Lesions (new gadolinium CE T1-weighted, 6 months, observed data)” value ([1]; Female, 3 mg) was 4.97. The “Percent Change from Placebo (observed mean # of lesions)” value ([1]; Female, 3 mg) was −36.0%, the “Percent Change from Placebo (inverse of ratio of LSMeans treatment:placebo)” value ([1]; Female, 3 mg, p 0.2516) was −28% (0.2516) and the “LSMean # of Lesions” value ([1]; Male & Female, 1 mg) was 5.15. For the same compound, the “Mean # of Lesions (new gadolinium CE T1-weighted, 6 months, observed data)” value ([1]; Male & Female, 1 mg) was 7.19, the “Percent Change from Placebo (observed mean # of lesions)” value ([1]; Male & Female, 1 mg) was −9.6% and the “Percent Change from Placebo (inverse of ratio of LSMeans treatment:placebo)” value ([1]; Male & Female, 1 mg, p 0.3049) was −21% (0.3049). The “LSMean # of Lesions” value ([1]; Male & Female, 3 mg) was 3.10, the “Mean # of Lesions (new gadolinium CE T1-weighted, 6 months, observed data)” value ([1]; Male & Female, 3 mg) was 4.51 and the “Percent Change from Placebo (observed mean # of lesions)” value ([1]; Male & Female, 3 mg) was −43.3%. For the same compound, the “Percent Change from Placebo (inverse of ratio of LSMeans treatment:placebo)” value ([1]; Male & Female, 3 mg, p 0.0016) was −52% (0.0016), the “LSMean # of Lesions” value ([1]; Male, 1 mg) was 4.31 and the “Mean # of Lesions (new gadolinium CE T1-weighted, 6 months, observed data)” value ([1]; Male, 1 mg) was 5.93. For the same compound, the “Percent Change from Placebo (observed mean # of lesions)” value ([1]; Male, 1 mg) was −30.4%, the “Percent Change from Placebo (inverse of ratio of LSMeans treatment:placebo)” value ([1]; Male, 1 mg, p 0.0827) was −48% (0.0827) and the “LSMean # of Lesions” value ([1]; Male, 3 mg) was 2.42. The “Mean # of Lesions (new gadolinium CE T1-weighted, 6 months, observed data)” value ([1]; Male, 3 mg) was 3.81, the “Percent Change from Placebo (observed mean # of lesions)” value ([1]; Male, 3 mg) was −55.4% and the “Percent Change from Placebo (inverse of ratio of LSMeans treatment:placebo)” value ([1]; Male, 3 mg, p 0.0012) was −71% (0.0012). The “reduction of new T1 lesions in the study analysis” value ([1]; men, 3 mg per day) was 71%, the “Month 3 EDSS % change from baseline” value ([2]; 1 mg) was −0.49% and the “Month 6 EDSS % change from baseline” value ([2]; 1 mg) was −2.94%. For the same compound, the “Month 3 EDSS Mean (SD)” value ([2]; 1 mg, n=74) was 2.03 (0.961), the “Month 6 EDSS Mean (SD)” value ([2]; 1 mg, n=74) was 1.98 (0.974) and the “Month 3 EDSS % change from baseline” value ([2]; 3 mg) was −0.46%. The “Month 6 EDSS % change from baseline” value ([2]; 3 mg) was −4.59%, the “Month 6 EDSS Mean (SD)” value ([2]; 3 mg, n=73) was 2.08 (0.846) and the “Month 3 EDSS Mean (SD)” value ([2]; 3 mg, n=74) was 2.17 (0.945). The “Annualized Confirmed Relapse Rate (ARR)” value ([3]; 1 mg) was 0.28 and the “Annualized Confirmed Relapse Rate (ARR)” value ([3]; 3 mg) was 0.26.
